Patent US8211899B2, “Artificial nucleic acid bases and their use in base pairing natural nucleic acid bases” (Inter-University Research Institute Corporation National …, priority 2005, dated 2012)
Like-named read-outs stand apart in the source and are kept apart here.

What was measured:
1-methylthymine (T) = assay: test of base pair formation by UV absorbance change versus mixing ratio; format: binding; details: mixture with T, total 7.5 mmol/L, mol ratio 0:10 to 10:0, anhydrous DMSO, 25° C., 12 hr
Description: The test of base pair formation was carried out in the following way. The concentration of the mixture of PPT and one of respective N-methylated natural nucleic acid bases (1-methylcytosine (herein after, referred to as “C”), 1-methylthymine (hereinafter, referred to as “T”). 9-methyladenine (hereinafter, referred to as “A”), and 9-methylguanine (hereinafter, referred to as “G”)) was kept constant at 7.5 mmol/L and the ratio (mol ratio) of the mixture was varied from 0:10 to 10:0. The mixture was dissolved at 25° C. in anhydrous dimethyl sulfoxide (DMSO), which had been removed oxygen by freezing-degas method, dissolved argon gas, mixed with DMSO solution of substrates prepared before hand, and allowed to leave for overnight (12 hr.). Then, the change of absorbance in ultraviolet wavelength region was measured according to the following conditions: • (1) The measuring equipment, JASCO V-550 SERIAL NO. C02951260; • (2) The thermal controller, JASCO PSC-498T; • (3) The cell, GL Science Type: AB20-SQ-0.1 (Optical path is 0.1 mm); • (4) The cell adopter, CAS-10-1; • (5) The measured wavelength region, 200-350 nm.
The absorbance of substrates is proportional to a mixing ratio of the substrates (Beer's law) in the case of no interaction between substrates.
For comparison, the base pair formation was examined for A and T, and G and T similarly to Example 3.

[1] = solubility test in solvents at 1 to 100 mM; format: physicochemical; details: for solubility: warmed to 50° C. and cooled to 27° C.; for solubility in water and organic solvents: water and various organic solvents
Description: The solubility of PPT obtained in Example 1 was examined. For comparison, the solubility of a PPT derivative, wherein R is H in chemical formula I (hereinafter, referred to as “PPT(H)”). For the solubility test, each solvent listed in Table I was used, and the concentration of solute was 1 to 100 mM. The solution with respective concentrations was warmed once to 50° C. and cooled to 27° C. The solution with residues was referred to as “insoluble”, in the contrast the solution without residues was referred to as “soluble”. The concentration of the buffer was 100 mM and the pH was 7.0.

9-methylguanine (G) = assay: test of base pair formation by UV absorbance change versus mixing ratio; format: binding; details: mixture with G, total 7.5 mmol/L, mol ratio 0:10 to 10:0, anhydrous DMSO, 25° C., 12 hr
Description: (§1) The test of base pair formation was carried out in the following way. […] The mixture was dissolved at 25° C. in anhydrous dimethyl sulfoxide (DMSO), which had been removed oxygen by freezing-degas method, dissolved argon gas, mixed with DMSO solution of substrates prepared before hand, and allowed to leave for overnight (12 hr.). Then, the change of absorbance in ultraviolet wavelength region was measured according to the following conditions: • (1) The measuring equipment, JASCO […]IAL NO. C02951260; • (2) The thermal controller, JASCO PSC-498T; • (3) The cell, GL Science Type: AB20-SQ-0.1 (Optical path is 0.1 mm); • (4) The cell adopter, CAS-10-1; • (5) The measured wavelength region, 200-350 nm. The absorbance changed in accordance with the mixing ratios. Plot of the absorbance change versus to mixing ratios at a wavelength, where the absorbance change was observed, are shown in FIG. 2. The absorbance of substrates is proportional to a mixing ratio of the substrates (Beer's law) in the case of no interaction between substrates.

9-methyladenine (A) = assay: as above; format: binding; details: mixture with A, total 7.5 mmol/L, mol ratio 0:10 to 10:0, anhydrous DMSO, 25° C., 12 hr
Description: as §1

1-methylcytosine (C) = assay: as above; format: binding; details: mixture with C, total 7.5 mmol/L, mol ratio 0:10 to 10:0, anhydrous DMSO, 25° C., 12 hr
Description: as §1

[2] = TBE buffer 100 mM pH 7.0, concentration 1 mM
[3] = TBE buffer 100 mM pH 7.0, concentration 100 mM
[4] = phosphate buffer 100 mM pH 7.0, concentration 1 mM
[5] = phosphate buffer 100 mM pH 7.0, concentration 100 mM
[6] = DMF, 27 °C, organic solvent or mixture, thermodynamic from solid, DMF, concentration 1 mM, read-out: solubility
[7] = DMF, 27 °C, organic solvent or mixture, thermodynamic from solid, DMF, concentration 100 mM, read-out: solubility
[8] = DMSO, 27 °C, organic solvent or mixture, thermodynamic from solid, DMSO, concentration 1 mM, read-out: solubility
[9] = DMSO, 27 °C, organic solvent or mixture, thermodynamic from solid, DMSO, concentration 100 mM, read-out: solubility
[10] = TBE buffer, 27 °C, pH 7, aqueous buffer, thermodynamic from solid, TBE buffer 100 mM pH 7.0, concentration 1 mM, read-out: solubility
[11] = TBE buffer, 27 °C, pH 7, aqueous buffer, thermodynamic from solid, TBE buffer 100 mM pH 7.0, concentration 100 mM, read-out: solubility
[12] = methanol, 27 °C, organic solvent or mixture, thermodynamic from solid, methanol, concentration 1 mM, read-out: solubility
[13] = methanol, 27 °C, organic solvent or mixture, thermodynamic from solid, methanol, concentration 100 mM, read-out: solubility
[14] = phosphate buffer, 27 °C, pH 7, aqueous buffer, thermodynamic from solid, phosphate buffer 100 mM pH 7.0, concentration 1 mM, read-out: solubility
[15] = phosphate buffer, 27 °C, pH 7, aqueous buffer, thermodynamic from solid, phosphate buffer 100 mM pH 7.0, concentration 100 mM, read-out: solubility
[16] = water, 27 °C, water, thermodynamic from solid, water, concentration 1 mM, read-out: solubility
[17] = water, 27 °C, water, thermodynamic from solid, water, concentration 100 mM, read-out: solubility

SMILES	base pair formation: deviation of absorbance plot from the linear line by Beer's law (1-methylthymine (T))	solubility ([1]; DMF, concentration 1 mM)	solubility ([1]; DMF, concentration 100 mM)	solubility ([1]; DMSO, concentration 1 mM)	solubility ([1]; DMSO, concentration 100 mM)	solubility [1, 2]	solubility [1, 3]	solubility ([1]; methanol, concentration 1 mM)	solubility ([1]; methanol, concentration 100 mM)	solubility [1, 4]	solubility [1, 5]	solubility ([1]; water, concentration 1 mM)	solubility ([1]; water, concentration 100 mM)	further results
Cn1cnc2c(=O)[nH]c(N)nc21 [G, 9-methylguanine]	no deviation from the linear line	–	–	–	–	–	–	–	–	–	–	–	–	–
C=CCn1c(=O)[nH]c(=O)c2c(=O)[nH]c(=O)[nH]c21 [CH2CH═CH2]	–	S (S: soluble)	S (S: soluble)	S (S: soluble)	S (S: soluble)	S (S: soluble)	Ins (Ins: insoluble)	S (S: soluble)	Ins (Ins: insoluble)	S (S: soluble)	Ins (Ins: insoluble)	S (S: soluble)	Ins (Ins: insoluble)	–
Cn1cnc2c(N)ncnc21 [A, 9-methyladenine]	deviation from the linear line	–	–	–	–	–	–	–	–	–	–	–	–	–
O=c1[nH]c(=O)c2c(=O)[nH]c(=O)[nH]c2[nH]1 [PPT(H), pyrimido [4,5-d]pyrimidine-2,4,5,7-tetraone, reference compound]	–	–	–	–	–	–	–	–	–	–	–	–	–	solubility [1, 6]: < 100 mM; solubility [1, 7]: < 100 mM; solubility [1, 8]: < 100 mM; solubility [1, 9]: < 100 mM; solubility [1, 10]: < 100 mM; solubility [1, 11]: < 100 mM; solubility [1, 12]: < 100 mM; solubility [1, 13]: < 100 mM; solubility [1, 14]: < 100 mM; solubility [1, 15]: < 100 mM; solubility in water and organic solvents [1]: insoluble; solubility in water and organic solvents ([1]; listed as unsubstituted form of pyrimido [4,5-d] pyrimidine -2,4,5,7-tetraone): extremely low; solubility [1, 16]: < 100 mM; solubility [1, 17]: < 100 mM
O=c1[nH]c(=O)c2c(=O)[nH]c(=O)n(CCO)c2[nH]1 [CH2CH2OH]	–	S (S: soluble)	Ins (Ins: insoluble)	S (S: soluble)	Ins (Ins: insoluble)	S (S: soluble)	Ins (Ins: insoluble)	S (S: soluble)	Ins (Ins: insoluble)	S (S: soluble)	Ins (Ins: insoluble)	S (S: soluble)	Ins (Ins: insoluble)	–
O=C(O)Cn1c(=O)[nH]c(=O)c2c(=O)[nH]c(=O)[nH]c21 [CH2COOH]	–	S (S: soluble)	Ins (Ins: insoluble)	S (S: soluble)	Ins (Ins: insoluble)	S (S: soluble)	S (S: soluble)	S (S: soluble)	Ins (Ins: insoluble)	S (S: soluble)	S (S: soluble)	S (S: soluble)	S (S: soluble)	–
CC(C)(C)[Si](OCCn1c(=O)[nH]c(=O)c2c(=O)[nH]c(=O)[nH]c21)(c1ccccc1)c1ccccc1 [PPT, 1-[2-(t-butyl-diphenyl-silyloxy)-ethyl]-1H, 8H-pyrimido [4,5-d]pyrimidine-2,4,5,7-tetraone]	large deviation from the linear line	–	–	–	–	–	–	–	–	–	–	–	–	base pair formation: deviation of absorbance plot from the linear line by Beer's law (9-methylguanine (G)): large deviation from the linear line; base pair formation: deviation of absorbance plot from the linear line by Beer's law (9-methyladenine (A)): large deviation from the linear line; base pair formation: deviation of absorbance plot from the linear line by Beer's law (1-methylcytosine (C)): large deviation from the linear line; solubility [1, 6]: > 1 mM; solubility [1, 7]: > 1 mM; solubility [1, 8]: > 1 mM; solubility [1, 9]: > 1 mM; solubility [1, 10]: > 1 mM; solubility [1, 11]: < 100 mM; solubility [1, 12]: > 1 mM; solubility [1, 13]: < 100 mM; solubility [1, 14]: > 1 mM; solubility [1, 15]: < 100 mM; solubility [1, 16]: > 1 mM; solubility [1, 17]: < 100 mM
